Where “and” joins values, the source holds several entries; their conditions need not be identical. Equal values may be shown once. Read-outs that look alike come from different tables or passages of the source.
Legend:
[1] = system: HCT-116 colon carcinoma cells; test: In vitro cytotoxic activity (MTT, 72 hr); format: cell-based, human; details: unit not given (dilutions in nM), read-out: In Vitro Antitumor Activity (IC50)
[2] = system: HCT116 human colon carcinoma cells; test: Cell cycle and apoptotic analyses (propidium iodide flow cytometry); format: cell-based; details: HCT-116 cells, 24 hr exposure
[3] = system: HT-29 colon carcinoma cells; test: In vitro cytotoxic activity (MTT, 72 hr); format: cell-based, human; details: unit not given (dilutions in nM), read-out: In Vitro Antitumor Activity (IC50)
[4] = system: PC-3 prostate carcinoma cells; test: In vitro cytotoxic activity (MTT, 72 hr); format: cell-based, human; details: unit not given (dilutions in nM), read-out: In Vitro Antitumor Activity (IC50)
[5] = system: LnCaP prostate carcinoma cells; test: In vitro cytotoxic activity (MTT, 72 hr); format: cell-based, human; details: unit not given (dilutions in nM), read-out: In Vitro Antitumor Activity (IC50)
[6] = Toxicity profile on oral and IV dosing in rats; details: dosed both orally and IV
[7] = system: DLD-1 multi-drug resistant human colon carcinoma xenografts; details: for MDS to 2.0 g ± SEM (n): DLD1-e07 study; for antitumor activity: DLD e07, optimum dose, route (IV) and schedule; for # Death NTR (Non-Treatment Related) / # Death TR (Treatment Related): mouse, in vivo
[8] = system: 786-0 human renal carcinoma xenografts; details: for Median survival / Median survival Ratio: iv
[9] = system: PANC-1 pancreatic adenocarcinoma cells; test: In vitro cytotoxic activity (MTT, 72 hr); format: cell-based, human; details: unit not given (dilutions in nM), read-out: In Vitro Antitumor Activity (IC50)
[10] = system: 1A9-PTX22 paclitaxel resistant ovarian carcinoma cells (tubulin mutation); test: In vitro cytotoxic activity (MTT, 72 hr); format: cell-based, human; details: for IC50: 1A9-PTX22, ovarian, tubulin mutation, MTT 72 hr, unit not given (dilutions in nM), read-out: In Vitro Antitumor Activity (IC50)
[11] = system: 1A9-PTX10 paclitaxel resistant ovarian carcinoma cells (tubulin mutation); test: In vitro cytotoxic activity (MTT, 72 hr); format: cell-based, human; details: for IC50: 1A9-PTX10, ovarian, tubulin mutation, MTT 72 hr, unit not given (dilutions in nM), read-out: In Vitro Antitumor Activity (IC50)
[12] = system: 1A9 ovarian carcinoma cells; test: In vitro cytotoxic activity (MTT, 72 hr); format: cell-based, human; details: unit not given (dilutions in nM), read-out: In Vitro Antitumor Activity (IC50)
[13] = system: SW480 human colon carcinoma xenografts; details: mouse, in vivo; for controlling tumor growth compared to the lower doses of compound 3102: iv
[14] = system: DLD-1 resistant colon carcinoma cells (overexpresses p-glycoprotein); test: In vitro cytotoxic activity (MTT, 72 hr); format: cell-based, human; details: DLD-1, colon, p-glycoprotein resistance, unit not given (dilutions in nM), read-out: In Vitro Antitumor Activity (IC50)
[15] = Homo sapiens, Ovarian carcinoma cell
[16] = IV QWK × 3 25 mg/kg vs 5% EC in Saline PO Q4D × 4
[17] = IV QWK × 3 30 mg/kg vs 5% EC in Saline PO Q4D × 4

Compound: CC(=O)O[C@@]12CO[C@@H]1C[C@H](O)[C@@]1(C)C(=O)[C@H](OC(=O)C3CC3)C3=C(C)[C@@H](OC(=O)[C@H](O)[C@@H](NC(=O)OCC(C)C)c4ccco4)C[C@@](O)([C@@H](OC(=O)c4ccccc4)C12)C3(C)C (stereo partly drawn) [Compound 3102]
- IC50 ([1]; Homo sapiens): 0.9 nM
- Apoptotic (percentage of cells in sub G1 peak) ([2]; 10 nM): 24.4%
- G1 (percentage of cells) ([2]; 10 nM): 20.1%
- G2/M (percentage of cells) ([2]; 10 nM): 27.3%
- S (percentage of cells) ([2]; 10 nM): 23.9%
- Apoptotic (percentage of cells in sub G1 peak) ([2]; 100 nM): 11.7%
- G1 (percentage of cells) ([2]; 100 nM): 7.0%
- G2/M (percentage of cells) ([2]; 100 nM): 74.0%
- S (percentage of cells) ([2]; 100 nM): 7.1%
- IC50 ([3]; Homo sapiens): 1.2 nM
- IC50 ([4]; Homo sapiens): 1.8 nM
- IC50 ([5]; Homo sapiens): 2.6 nM
- toxicity profile [6]: favorable toxicity profile
- MDS to 2.0 g ± SEM (n) ([7]; 30 mg/kg IV Q4D × 4): 45.3 ± 4.6
- MDS to 2.0 g ± SEM (n) ([7]; 50 mg/kg PO Q4D × 4): 47.1 ± 3.9
- MDS to 2.0 g ± SEM (n) ([7]; 70 mg/kg PO Q4D × 4): 46.1 ± 3.5
- MDS to 2.0 g ± SEM (n) ([7]; 80 mg/kg PO Q4D × 4): 53.8±
- Logrank Test Chi square ([8]; IV Q4D × 4 30 mg/kg vs 5% EC in Saline PO Q4D × 4): 5.459
- Logrank Test Chi square ([8]; PO Q4D × 4 50 mg/kg vs 5% EC in Saline PO Q4D × 4): 1.972
- Logrank Test Chi square ([8]; PO Q4D × 4 70 mg/kg vs 5% EC in Saline PO Q4D × 4): 0.2502
- Logrank Test Chi square ([8]; PO Q4D × 4 80 mg/kg vs 5% EC in Saline PO Q4D × 4): 5.234
- IC50 ([9]; Homo sapiens): 1.8 nM
- potency compared to that of paclitaxel ([10]; 1A9-PTX22 (sentence covers 1A9-PTX10 and 1A9-PTX22)): 4 to 8 fold
- IC50 ([10]; Homo sapiens, 1A9/ptx-22): 8.5 nM
- potency compared to that of paclitaxel ([11]; 1A9-PTX10 (sentence covers 1A9-PTX10 and 1A9-PTX22)): 4 to 8 fold
- IC50 ([11]; Homo sapiens, 1A9/ptx-10): 5.2 nM
- IC50 [12, 15]: 1.6 nM
- treatment related death [13]: One
- IC50 ([14]; Homo sapiens): 1.9 nM

Compound: CC(=O)O[C@H]1C(=O)[C@@]2(C)[C@H]([C@H](OC(=O)c3ccccc3)[C@]3(O)C[C@H](OC(=O)[C@H](O)[C@@H](NC(=O)c4ccccc4)c4ccccc4)C(C)=C1C3(C)C)[C@]1(OC(C)=O)CO[C@@H]1C[C@@H]2O [Paclitaxel, paclitaxel]
- Apoptotic (percentage of cells in sub G1 peak) ([2]; 10 nM): 24.0%
- G1 (percentage of cells) ([2]; 10 nM): 31.1%
- G2/M (percentage of cells) ([2]; 10 nM): 17.8%
- S (percentage of cells) ([2]; 10 nM): 25.0%
- Apoptotic (percentage of cells in sub G1 peak) ([2]; 100 nM): 15.3%
- G1 (percentage of cells) ([2]; 100 nM): 7.0%
- G2/M (percentage of cells) ([2]; 100 nM): 67.2%
- S (percentage of cells) ([2]; 100 nM): 9.4%
- IC50 ([3]; Homo sapiens): 2.6 nM
- IC50 ([4]; Homo sapiens): 4.1 nM
- IC50 ([5]; Homo sapiens): 3.1 nM
- MDS to 2.0 g ± SEM (n) ([7]; 30 mg/kg IV QOD × 5): 40.2 ± 4.7
- antitumor activity [7]: failed to demonstrate significant antitumor activity against DLD-1 tumors
- # Death NTR (Non-Treatment Related) [7]: 0
- # Death TR (Treatment Related) ([7]; nude): 0
- slowing of tumor growth vs control (statistical analysis, words) ([8]; 786-0 e89, optimum dose, route (IV) and schedule): did not appear to significantly slow the growth of tumors compared to control
- Logrank Test Chi square ([8]; IV QOD × 5 30 mg/kg vs 5% EC in Saline PO Q4D × 4): 3.414
- # Death NTR (Non-Treatment Related) ([8]; mouse, in vivo): 0
- # Death TR (Treatment Related) ([8]; mouse, in vivo): 0
- Day of Max. % BW Loss ([8]; mouse, in vivo): Day 13
- MDS to 2.0 g ± SEM (n) ([8]; mouse, in vivo): 40.0 ± 6.6
- Max. % BW Loss ([8]; mouse, in vivo): −7.6%;
- Are the survival curves sig different? ([8]; mouse, in vivo, 30 mg/kg): No
- Median survival ([8]; mouse, in vivo, 30 mg/kg): 51.15
- IC50 ([9]; Homo sapiens): 4.2 nM
- IC50 ([10]; Homo sapiens, 1A9/ptx-22): > 30 nM
- IC50 ([11]; Homo sapiens, 1A9/ptx-10): > 40 nM
- IC50 [12, 15]: 2.5 nM
- # Death NTR (Non-Treatment Related) [13]: 0
- # Death TR (Treatment Related) [13]: 0
- MDS to 2.0 g ± SEM (n) [13]: 26.2 ± 3.0
- controlling tumor growth compared to the lower doses of compound 3102 [13]: as effective or slightly less effective in controlling tumor growth
- IC50 ([14]; Homo sapiens): > 10 nM

Compound: docetaxel
- IC50 [1]: 0.9 nM
- Apoptotic (percentage of cells in sub G1 peak) ([2]; 10 nM): 44.1%
- G1 (percentage of cells) ([2]; 10 nM): 10.4%
- G2/M (percentage of cells) ([2]; 10 nM): 17.1%
- S (percentage of cells) ([2]; 10 nM): 25.4%
- Apoptotic (percentage of cells in sub G1 peak) ([2]; 100 nM): 14.4%
- G1 (percentage of cells) ([2]; 100 nM): 4.0%
- G2/M (percentage of cells) ([2]; 100 nM): 68.0%
- S (percentage of cells) ([2]; 100 nM): 11.6%
- IC50 [3]: 1.2 nM
- IC50 [4]: 2.8 nM
- IC50 [5]: 1.9 nM
- MDS to 2.0 g ± SEM (n) ([7]; 25 mg/kg IV Q7D × 3): 35.0 ± 2.3
- MDS to 2.0 g ± SEM (n) ([7]; 30 mg/kg IV Q7D × 3): 37.6 ± 6.5
- antitumor activity [7]: failed to demonstrate significant antitumor activity against DLD-1 tumors
- # Death NTR (Non-Treatment Related) [7]: 0
- # Death TR (Treatment Related) [7]: 0
- Hazard Ratio [8, 16]: 2.967
- Logrank Test Chi square [8, 16]: 4.859
- Hazard Ratio [8, 17]: 3.39
- Logrank Test Chi square [8, 17]: 5.271
- # Death TR (Treatment Related) ([8]; mouse, in vivo): 0
- MDS to 2.0 g ± SEM (n) ([8]; mouse, in vivo): 52.1 ± 4.7 and 49.3 ± 4.3
- slowing of tumor growth vs vehicle control (statistical analysis, words) ([8]; mouse, in vivo): able to slow 786-0 tumor growth compared to the vehicle control
- Are the survival curves sig different? ([8]; mouse, in vivo, 25 mg/kg): Yes
- Are the survival curves sig different? ([8]; mouse, in vivo, 30 mg/kg): Yes
- Median survival ([8]; mouse, in vivo, 25 mg/kg): 52.7
- Median survival Ratio ([8]; mouse, in vivo, 25 mg/kg): 0.704
- Median survival ([8]; mouse, in vivo, 30 mg/kg): 52
- Median survival Ratio ([8]; mouse, in vivo, 30 mg/kg): 0.7135
- IC50 [9]: 2 nM
- IC50 [10]: 8.5 nM
- IC50 [11]: 7 nM
- IC50 [12]: 1.8 nM
- MDS to 2.0 g ± SEM (n) [13]: 29.0 ± 7.8 and 32.4 ± 4.1
- non-treatment related death [13]: one
- non-treatment related deaths [13]: two
- treatment related death [13]: one
- controlling tumor growth compared to the lower doses of compound 3102 [13]: as effective or slightly less effective in controlling tumor growth
- IC50 [14]: 9.2 nM

Source: patent US20060189679A1, “C10 cyclopropyl ester substituted taxane compositions” (priority 2005, published 2006)
